Source: patent US20260137652A1, “Composition Comprising Non-Phosphorylated Tryptamine” (SINTALICA S.R.L., priority 2022, published 2026)

Tests used:
[1] = Stability test of psilocin for 24 hours: darkening and psilocin concentration by UHPLC-MS; format: physicochemical
Experimental: The inclusion complex obtained by the resuspension of the freeze-dried complex of (β-carotene and 2-hydroxypropylether p-cyclodextrin in the ratio 1:5 with 3 mg of psilocin dissolved in 1 mL of H2O:EtOH (8:2) solution, was tested to evaluate the inclusion complex stability.
The complex stability was evaluated for 24 hours, under different environmental conditions: • Sample A) 22° C. with no light irradiation • Sample B) 30° C. with no light irradiation • Sample C) 22° C. under UV irradiation (using an UVA lamp A=365 nm) • Sample D) Freeze-dried for 30 days • Sample E) 30° C. under UV irradiation (using an UVA lamp A=365 nm)
All the complex stability tests were compared to a “blank” psilocin solution in H2O:EtOH (8:2).
For evaluating psilocin stability chromatographic analyses were performed using a Nexera X2 UHPLC system coupled to a LCMS-8060 mass spectrometer (Shimadzu, Duisburg, Germany). Data acquisition and processing was performed using the LabSolutions software (version 5.95 Shimadzu). The separation of the various tryptamines was achieved by using an Ascentis Express 90 HILIC column (150×2.1 mm, 2.7 pm) (Merck Life Science) and a mobile phase composed of ammonium formate 0.1 M in water as solvent A, and acetonitrile as solvent B. The gradient program was as follows: 0 min, 90% B; 3 min, 75% B; 10 min, 20% B; 13 min 20% B; 15 min 90% B. The flow rate was 0.5 mL min−1; the column oven was set at 40° C. and the injection volume was 1 pL. Mobile phases were filtered through a 0.45 µm membrane.
The synthetic psilocin was weighed in a volumetric flask and diluted with water: ethanol (8:2) at a concentration of 3000 ppm. Then, it was serially diluted to get a final concentration of 0.10 ppm and analyzed according to the above reported method, in order to verify the stability for 24 hours. At time 0, it was 0.11 ppm. After 24 hours the concentration decreased to 0.04 ppm, showing a concentration loss of 60%.

[2] = Stability test by NMR spectroscopy; format: physicochemical; settings: Sample A: 22° C. with no light irradiation
Experimental: The same specimens were analyzed also by NMR Spectroscopy using Varian 500 MHz spectrometer equipped with a OneNMR probe.
Samples were recorded using a PRESAT pulse sequence suppressing the signal of H2O and EtOH acquiring 128 scans for each spectrum. H2O (4.64 ppm) was used as reference line.
For the NMR analysis, all samples were treated as follow: 530 pL were poured into NMR tube (5 mm i.d.) then coaxial tube was filled with D2O to lock the solvent frequency.

MPO = MPO analysis (marker of neutrophil infiltration) after CAR injection; format: in vivo, Sprague-Dawley rats; settings: rats; for MPO activity: vs CAR group
Experimental: (§1) The biological effect of the complex, in comparison with the psilocin solution, against inflammation was tested by their administration to 8-12 weeks old male rats.
(§2) A composition comprising complex according to example 1, wherein the ratio of β-carotene to 2-hydroxypropylether β-cyclodextrin was 1:5, was used. Complexes (psilocin, β-carotene, ascorbic acid with ratio 1:1:1 and 2-hydroxypropylether β-cyclodextrin) containing two different concentrations of psilocin have been tested: • a complex containing 3 mg of psilocin, • a complex containing 10 mg of psilocin.
(§3) The study was performed using male Sprague-Dawley rats (200-250 g; Envigo, Milan, Italy). Food and water were accessible ad libitum. Rats were concurrently subjected to a singular subplantar injection of CAR (100 pL of saline solution containing 1% CAR). Paw edema was measured with a plethysmometer (Ugo Basile, Comerio, Varese, Italy) (Salvemini, D.; Wang, Z.-Q.; Wyatt, P. S.; Bourdon, D. M.; Marino, M. H.; Manning, P. T.; Currie, M. G., “Nitric oxide: A key mediator in the early and late phase of carrageenan-induced rat paw inflammation”, Br. J. Pharmacol. 1996, 118, 829-838) prior to CAR injection and every hour for 6 h. Edema was expressed as the increase in paw volume (mL) after CAR injection relative to the pre-injection value for all animals. Scores were expressed as paw volume difference (mL).
The activity of MPO (myeloperoxidase is an enzyme released by neutrophils and used as a marker of neutrophil infiltration) was assessed as previously described (Mullane, K. M.; Kraemer, R.; Smith, B. “Myeloperoxidase activity as a quantitative assessment of neutrophil infiltration into ischemic myocardium.” J. Pharmacol. Methods 1985, 14, 157-167). The rate of change in absorbance was calculated spectrophotometrically at 650 nm. MPO activity was measured in U per gram weight of wet tissue and was quantified as the quantity of enzyme degrading […] of peroxide 1 min at 37° C.
All values are expressed as mean±standard deviation (SD) of N=10 observations. For the in-vivo studies, N represents the number of animals studied. […]

mechanical allodynia = test: Pain behavior: mechanical allodynia, Von Frey test after CAR injection; format: in vivo, Sprague-Dawley rats; settings: rats, 1-6 hours post CAR injection, as compared to CAR group
paw tissues = test: Histology (H&E staining) of paw tissues after CAR injection; format: in vivo, Sprague-Dawley rats; settings: for inflammatory cell infiltration and edema / histological score (H&E): rat paw tissues 6 h after CAR injection
Experimental: as §1, §2, §3
Paw tissues were collected 6 h after CAR injection. Samples were fixed in 10% formaldehyde solution in phosphate buffer saline (PBS) at room temperature for 24 h, dehydrated by graded series of ethanol and at the list embedded in Paraplast (Sherwood Medical, Mahwah, NJ, USA). Sections of 7-pm thickness were cut with a microtome, deparaffinized with xylene and stained with hematoxylin and eosin (H&E). All sections were examined using an Axiovision Zeiss (Milan, Italy) microscope by two investigators blinded to the treatment conditions. […]
All values are expressed as mean±standard deviation (SD) of N=10 observations. […] Data were analyzed by one-way ANOVA followed by a Bonferroni post-hoc test for multiple comparisons. […]

CAR-induced paw edema = test: CAR-induced paw edema, paw volume by plethysmometer; format: in vivo, Sprague-Dawley rats; settings: rats, measured every hour for 6 h after CAR, vs CAR group
Experimental: as §1, §2, §3
All values are expressed as mean±standard deviation (SD) of N=10 observations. For the in-vivo studies, N represents the number of animals studied. Data were analyzed by one-way ANOVA followed by a Bonferroni post-hoc test for multiple comparisons. A p-value less than 0.05 will be considered significant. #p<0.05 vs. CTR, *p<0.05 vs. CAR, ##p<0.01 vs. CTR, **p<0.01 vs. CAR, ###p<0.001 vs. CTR, ***p<0.001 vs. CAR, °p<0.05 vs. 3 m/Kg, § p<0.05 vs. 10 mg/Kg, °°p<0.01 vs. 3 mg/Kg, §§ p<0.01 vs. 10 mg/Kg, 000 p<0.001 vs. 3 mg/Kg, §§§ p<0.001 vs. 10 mg/Kg.

[3] = Sample B: 30° C. with no light irradiation, 24 hours

CN(C)CCc1c[nH]c2cccc(O)c12 [psilocin, 4-hydroxy-N,N-dimethyltryptamine]
darkening ([1]; Sample A: 22° C. with no light irradiation, 24 h): started the darkening process since the first 2 hours of storing
psilocin concentration after 24 hours ([1]; Sample A: 22° C. with no light irradiation, H2O:EtOH (8:2), after 24 hours): 0.04 ppm
psilocin concentration at time 0 ([1]; Sample A: 22° C. with no light irradiation, H2O:EtOH (8:2), time 0): 0.11 ppm
loss of psilocin concentration ([1]; Sample A: 22° C. with no light irradiation, after 24 hours): 60%
psilocin concentration trend ([1]; Sample A: 22° C. with no light irradiation, time 0 vs after 24 hours): decreased
darkening [1, 3]: darkening process was observed
psilocin concentration trend [1, 3]: decreased during 24 hours
darkening ([1]; Sample C: 22° C. under UV irradiation (365 nm), 24 h): started the darkening process since the first 2 hours of storing
psilocin concentration trend ([1]; Sample C: 22° C. under UV irradiation (365 nm), 24 hours): decreasing during 24 hours
darkening ([1]; Sample D: freeze-dried, redissolved 30 days after freeze-drying, ambient temperature, 24 h): started the darkening process since the first 2 hours of storing
darkening ([1]; Sample E: 30° C. under UV irradiation (365 nm), 24 h): Darkening was observed
psilocin concentration trend ([1]; Sample E: 30° C. under UV irradiation (365 nm), 24 hours): decreased during 24 hours
degradation product by NMR compared with the other solutions [2]: less degradation product
MPO activity (MPO; 3 mg/Kg): reduced the MPO activity
MPO activity (MPO; 10 mg/Kg): reduced the MPO activity
MPO activity effect of psilocin as compared to the complex administration (MPO; all doses (3 and 10 mg/Kg)): significant effect
paw-withdrawal threshold (Von Frey) (mechanical allodynia; 3 mg/Kg): significantly increased
paw-withdrawal threshold (Von Frey) (mechanical allodynia; 10 mg/Kg): significantly increased
inflammatory cell infiltration and edema / histological score (H&E) (paw tissues; 3 mg/Kg): meaningfully decreased
inflammatory cell infiltration and edema / histological score (H&E) (paw tissues; 10 mg/Kg): meaningfully decreased
histological anti-inflammatory effect of psilocin as compared to the complex administration (paw tissues; all doses (3 and 10 mg/Kg), rats): better anti-inflammatory effect
CAR-induced paw edema (paw volume) (CAR-induced paw edema; 3 mg/Kg): reduction of paw volume
CAR-induced paw edema (paw volume) (CAR-induced paw edema; 3 mg/Kg, listed as Psilocin): significantly reduced
CAR-induced paw edema (paw volume) (CAR-induced paw edema; 10 mg/Kg): reduction of paw volume
CAR-induced paw edema (paw volume) (CAR-induced paw edema; 10 mg/Kg, listed as Psilocin): significantly reduced
